Measured values as given in PubChem BioAssay (NCI).
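48-hour exposure; five concentrations; linearly interpolated endpoints. TGI denotes the concentration required for complete inhibition of growth.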

Assays:
Experiment in all cases: growth of human tumour cells (NCI), 48 h
MOLT-4 leukemia = system: MOLT-4 leukemia
HT29 colon = system: HT29 colon
SN12C renal = system: SN12C renal
CAKI-1 renal = system: CAKI-1 renal
SNB-75 CNS = system: SNB-75 CNS
SK-MEL-2 melanoma = system: SK-MEL-2 melanoma
SK-OV-3 ovarian = system: SK-OV-3 ovarian
A498 renal = system: A498 renal
IGROV1 ovarian = system: IGROV1 ovarian
DU-145 prostate = system: DU-145 prostate
SK-MEL-5 melanoma = system: SK-MEL-5 melanoma
UACC-257 melanoma = system: UACC-257 melanoma
HOP-62 NSCLC = system: HOP-62 NSCLC
T-47D breast = system: T-47D breast
OVCAR-5 ovarian = system: OVCAR-5 ovarian
SF-268 CNS = system: SF-268 CNS
OVCAR-4 ovarian = system: OVCAR-4 ovarian
HCC-2998 colon = system: HCC-2998 colon
HS 578T breast = system: HS 578T breast
A549 NSCLC = system: A549 NSCLC
MDA-MB-435 = system: MDA-MB-435
SW-620 colon = system: SW-620 colon
SF-295 CNS = system: SF-295 CNS
ACHN renal = system: ACHN renal
UO-31 renal = system: UO-31 renal
UACC-62 melanoma = system: UACC-62 melanoma
NCI/ADR-RES ovarian = system: NCI/ADR-RES ovarian
NCI-H460 lung = system: NCI-H460 lung
OVCAR-8 ovarian = system: OVCAR-8 ovarian
COLO 205 colon = system: COLO 205 colon
HCT-116 colon = system: HCT-116 colon
OVCAR-3 ovarian = system: OVCAR-3 ovarian
SNB-19 CNS = system: SNB-19 CNS
NCI-H226 lung = system: NCI-H226 lung
HOP-92 NSCLC = system: HOP-92 NSCLC
EKVX NSCLC = system: EKVX NSCLC
PC-3 prostate = system: PC-3 prostate
CCRF-CEM leukemia = system: CCRF-CEM leukemia
KM12 colon = system: KM12 colon
HL-60(TB) leukemia = system: HL-60(TB) leukemia
U251 CNS = system: U251 CNS
SK-MEL-28 melanoma = system: SK-MEL-28 melanoma
RXF 393 renal = system: RXF 393 renal
BT-549 breast = system: BT-549 breast
K-562 leukemia = system: K-562 leukemia
TK-10 renal = system: TK-10 renal
HCT-15 colon = system: HCT-15 colon
MDA-N = system: MDA-N
M14 melanoma = system: M14 melanoma
RPMI-8226 leukemia = system: RPMI-8226 leukemia
786-0 renal = system: 786-0 renal
MCF7 breast = system: MCF7 breast
MDA-MB-231 breast = system: MDA-MB-231 breast
NCI-H23 lung = system: NCI-H23 lung
MALME-3M melanoma = system: MALME-3M melanoma
LOX IMVI melanoma = system: LOX IMVI melanoma
SR leukemia = system: SR leukemia
SF-539 CNS = system: SF-539 CNS

Structure (SMILES): COC(=O)[C@H](Cc1ccccc1)NC(=O)c1ccc(CNC(=O)/C=C/c2ccc(-c3ccccc3)cc2)cc1
- TGI (MOLT-4 leukemia): > 100 µM
- TGI (HT29 colon): > 100 µM
- TGI (SN12C renal): > 100 µM
- TGI (CAKI-1 renal): > 100 µM
- TGI (SNB-75 CNS): 48.3 µM
- TGI (SK-MEL-2 melanoma): > 100 µM
- TGI (SK-OV-3 ovarian): > 100 µM
- TGI (A498 renal): > 100 µM
- TGI (IGROV1 ovarian): > 100 µM
- TGI (DU-145 prostate): > 100 µM
- TGI (SK-MEL-5 melanoma): > 100 µM
- TGI (UACC-257 melanoma): > 100 µM
- TGI (HOP-62 NSCLC): 45.4 µM
- TGI (T-47D breast): > 100 µM
- TGI (OVCAR-5 ovarian): > 100 µM
- TGI (SF-268 CNS): > 100 µM
- TGI (OVCAR-4 ovarian): > 100 µM
- TGI (HCC-2998 colon): > 100 µM
- TGI (HS 578T breast): 54.5 µM
- TGI (A549 NSCLC): > 100 µM
- TGI (MDA-MB-435): > 100 µM
- TGI (SW-620 colon): > 100 µM
- TGI (SF-295 CNS): 94.5 µM
- TGI (ACHN renal): > 100 µM
- TGI (UO-31 renal): > 100 µM
- TGI (UACC-62 melanoma): > 100 µM
- TGI (NCI/ADR-RES ovarian): > 100 µM
- TGI (NCI-H460 lung): > 100 µM
- TGI (OVCAR-8 ovarian): > 100 µM
- TGI (COLO 205 colon): > 100 µM
- TGI (HCT-116 colon): > 100 µM
- TGI (OVCAR-3 ovarian): > 100 µM
- TGI (SNB-19 CNS): 39.1 µM
- TGI (NCI-H226 lung): > 100 µM
- TGI (HOP-92 NSCLC): > 100 µM
- TGI (EKVX NSCLC): > 100 µM
- TGI (PC-3 prostate): > 100 µM
- TGI (CCRF-CEM leukemia): > 100 µM
- TGI (KM12 colon): > 100 µM
- TGI (HL-60(TB) leukemia): > 100 µM
- TGI (U251 CNS): 37.3 µM
- TGI (SK-MEL-28 melanoma): > 100 µM
- TGI (RXF 393 renal): 40.3 µM
- TGI (BT-549 breast): 97.2 µM
- TGI (K-562 leukemia): > 100 µM
- TGI (TK-10 renal): > 100 µM
- TGI (HCT-15 colon): > 100 µM
- TGI (MDA-N): > 100 µM
- TGI (M14 melanoma): > 100 µM
- TGI (RPMI-8226 leukemia): > 100 µM
- TGI (786-0 renal): > 100 µM
- TGI (MCF7 breast): > 100 µM
- TGI (MDA-MB-231 breast): 76.7 µM
- TGI (NCI-H23 lung): > 100 µM
- TGI (MALME-3M melanoma): > 100 µM

Structure (SMILES): O=C(O)c1ccccc1.[Ag]
- TGI (MOLT-4 leukemia): > 21.7 µM
- TGI (HT29 colon): 43.7 µM
- TGI (SN12C renal): 51 µM
- TGI (CAKI-1 renal): 9.89 µM
- TGI (SNB-75 CNS): 11.3 µM
- TGI (SK-MEL-2 melanoma): 30.2 µM
- TGI (SK-OV-3 ovarian): 31.2 µM
- TGI (A498 renal): 36.8 µM
- TGI (IGROV1 ovarian): 30.6 µM
- TGI (DU-145 prostate): 32.1 µM
- TGI (SK-MEL-5 melanoma): 19.5 µM
- TGI (UACC-257 melanoma): 10.2 µM
- TGI (LOX IMVI melanoma): > 66.6 µM
- TGI (HOP-62 NSCLC): 46.3 µM
- TGI (T-47D breast): 5.28 µM
- TGI (OVCAR-5 ovarian): 45.1 µM
- TGI (SF-268 CNS): 50.1 µM
- TGI (OVCAR-4 ovarian): 29.9 µM
- TGI (HCC-2998 colon): 37 µM
- TGI (HS 578T breast): > 71.9 µM
- TGI (A549 NSCLC): > 58.7 µM
- TGI (MDA-MB-435): 31.7 µM
- TGI (SF-295 CNS): > 100 µM
- TGI (ACHN renal): 19.1 µM
- TGI (UO-31 renal): 7.17 µM
- TGI (UACC-62 melanoma): 32.3 µM
- TGI (NCI/ADR-RES ovarian): > 100 µM
- TGI (SR leukemia): > 100 µM
- TGI (NCI-H460 lung): 30.1 µM
- TGI (OVCAR-8 ovarian): > 72.7 µM
- TGI (COLO 205 colon): 4.12 µM
- TGI (HCT-116 colon): 46.3 µM
- TGI (OVCAR-3 ovarian): 28.5 µM
- TGI (SNB-19 CNS): > 100 µM
- TGI (NCI-H226 lung): > 100 µM
- TGI (HOP-92 NSCLC): 41.3 µM
- TGI (EKVX NSCLC): 55.4 µM
- TGI (PC-3 prostate): 29.8 µM
- TGI (KM12 colon): 47.3 µM
- TGI (HL-60(TB) leukemia): > 42 µM
- TGI (U251 CNS): 35.4 µM
- TGI (SK-MEL-28 melanoma): 32.4 µM
- TGI (RXF 393 renal): 35.9 µM
- TGI (BT-549 breast): 64.9 µM
- TGI (K-562 leukemia): > 26.4 µM
- TGI (TK-10 renal): 19.6 µM
- TGI (HCT-15 colon): 49.5 µM
- TGI (MDA-N): 19.2 µM
- TGI (M14 melanoma): 36 µM
- TGI (RPMI-8226 leukemia): > 23.5 µM
- TGI (786-0 renal): 32.7 µM
- TGI (MCF7 breast): 36.5 µM
- TGI (NCI-H23 lung): 54.5 µM
- TGI (SF-539 CNS): 45.4 µM
- TGI (MALME-3M melanoma): 3.25 µM
